Test results taken from ChEMBL document CHEMBL3861981 (J Med Chem, 2016).

Assays:
[1] = Cardiotoxicity in rabbit heart assessed as change in sinoatrial node recovery time at 10 uM perfused for 60 mins measured every 10 mins during perfusion by electrophysiology method relative to control; type: toxicity, tissue-based, Oryctolagus cuniculus; settings: 1 h
[2] = Half life in Beagle dog plasma at 1 mg/kg, iv administered as 5 mins infusion by LC/MS/MS analysis; type: ADME, organism-based, Canis lupus familiaris
[3] = Clearance in cynomolgus monkey plasma at 3 mg/kg, iv administered as 5 mins infusion measured up to 24 hrs post dose by LC/MS/MS analysis; type: ADME, organism-based, Macaca fascicularis
Hepatitis C virus = assay: Antiviral activity against HCV genotype 1b Con1 expressing NS3 protease infected in human Huh7.5 cells assessed as reduction in viral RNA replication by luciferase reporter gene assay; type: functional, cell-based, Hepacivirus hominis; settings: genotype 1b Con1, Huh-7
[4] = AUC in cannulated Sprague-Dawley rat plasma at 15 mg/kg administered via oral gavage measured up to 24 hrs post dose by LC/MS/MS analysis; type: ADME, organism-based; design: dose 15 mg/kg, time < 24 hr, route oral
[5] = Cardiotoxicity in rabbit heart assessed as change in heart rate at 10 uM perfused for 20 mins measured for 1 min by electrophysiology method relative to control; type: toxicity, tissue-based, Oryctolagus cuniculus
[6] = Oral bioavailability in cynomolgus monkey plasma at 10 mg/kg administered via gavage measured up to 24 hrs post dose by LC/MS/MS analysis; type: ADME, organism-based, Macaca fascicularis; settings: plasma
[7] = AUC in Beagle dog plasma at 3 mg/kg administered via oral gavage measured up to 24 hrs post dose by LC/MS/MS analysis; type: ADME, organism-based, Canis lupus familiaris; design: dose 3 mg/kg, time < 24 hr, route oral
[8] = Clearance in cannulated Sprague-Dawley rat plasma at 5 mg/kg, iv administered as 10 mins infusion measured up to 24 hrs post dose by LC/MS/MS analysis; type: ADME, organism-based
[9] = Cardiotoxicity in rabbit heart assessed as change in sinoatrial node recovery time at 10 uM perfused for 20 mins measured for 1 min by electrophysiology method relative to control; type: toxicity, tissue-based, Oryctolagus cuniculus
[10] = Toxicity in cynomolgus monkey assessed as gastrointestinal irritation at 10 mg/kg, po administered through gavage; type: organism-based, Macaca fascicularis; settings: in vivo
[11] = Half life in cannulated Sprague-Dawley rat plasma at 5 mg/kg, iv administered as 10 mins infusion by LC/MS/MS analysis; type: ADME, organism-based
[12] = Drug uptake in cannulated Sprague-Dawley rat liver at 15 mg/kg administered via oral gavage measured at 24 hrs post dose by LC/MS/MS analysis; type: ADME, organism-based; settings: read-out: Drug uptake
[13] = Clearance in Beagle dog plasma at 1 mg/kg, iv administered as 5 mins infusion measured up to 24 hrs post dose by LC/MS/MS analysis; type: ADME, organism-based, Canis lupus familiaris
[14] = Oral bioavailability in cannulated Sprague-Dawley rat plasma at 15 mg/kg administered via gavage measured up to 24 hrs post dose by LC/MS/MS analysis; type: ADME, organism-based
[15] = Half life in human liver microsomes; type: ADME
[16] = Half life in cynomolgus monkey plasma at 3 mg/kg, iv administered as 5 mins infusion by LC/MS/MS analysis; type: ADME, organism-based, Macaca fascicularis
[17] = AUC in cynomolgus monkey plasma at 10 mg/kg administered via oral gavage measured up to 24 hrs post dose by LC/MS/MS analysis; type: ADME, organism-based, Macaca fascicularis; design: dose 10 mg/kg, time < 24 hr, route oral; settings: plasma
[18] = Oral bioavailability in Beagle dog plasma at 3 mg/kg administered via gavage measured up to 24 hrs post dose by LC/MS/MS analysis; type: ADME, organism-based, Canis lupus familiaris; settings: beagle, plasma
[19] = Cardiotoxicity in rabbit heart assessed as change in heart rate at 10 uM perfused for 60 mins measured every 10 mins during perfusion by electrophysiology method relative to control; type: toxicity, tissue-based, Oryctolagus cuniculus; settings: 1 h
[20] = Drug uptake in rabbit heart atrium measured after 60 mins; type: ADME, Oryctolagus cuniculus, Cardiac atrium; settings: read-out: Drug uptake

Row | Structure (SMILES) | EC50 (Hepatitis C virus) [nM] | AUC at 24 h [4] [µM·h] | Activity [5] [%] | clearance [8] [mL/min/kg] | half-life [11] [h] | concentration at 24 h [12] [µM] | bioavailability [14] [%] | half-life [15] [h] | further results
1 | COc1cnc(O[C@@H]2C[C@@H](C(=O)N[C@]3(C(=O)NS(=O)(=O)C4CC4)C[C@H]3C3CC3)N(C(=O)[C@@H](NC(=O)O[C@H](C)C(F)(F)F)C3CCCC3)C2)c2cc(Cl)ccc12 | 3.9 | 15 | -6 | 12.4 | 5.8 | 11.5 | 66 | 0.817 | Activity [1]: 29%; half-life [2]: 5.6 h; clearance [3]: 15.8 mL/min/kg; bioavailability [6]: 21.9%; AUC at 24 h [7]: 9.5 µM·h; Activity [9]: 0%; Activity [10]: Toxic; clearance [13]: 6.2 mL/min/kg; half-life [16]: 2.9 h; AUC at 24 h [17]: 2.9 µM·h; bioavailability [18]: 95%; Activity [19]: -25%; concentration at 1 h [20]: 225 µM
2 | COc1cnc(O[C@@H]2C[C@@H](C(=O)N[C@]3(C(=O)NS(=O)(=O)C4CC4)C[C@H]3C3CC3)N(C(=O)[C@@H](NC(=O)OC3CCC3)C(C)(C)C)C2)c2cc(Cl)ccc12 | 16.3 |  |  |  |  |  |  | 0.967 | 
3 | CC[C@@H](C)[C@H](NC(=O)O[C@H](C)C(F)(F)F)C(=O)N1C[C@H](Oc2ncc(OC)c3ccc(Cl)cc23)C[C@H]1C(=O)N[C@]1(C(=O)NS(=O)(=O)C2CC2)C[C@H]1C1CC1 | 6.3 |  |  |  |  |  |  | 1.63 | 
4 | COc1cnc(O[C@@H]2C[C@@H](C(=O)N[C@]3(C(=O)NS(=O)(=O)C4CC4)C[C@H]3C3CC3)N(C(=O)[C@@H](NC(=O)O[C@H](C)C(F)(F)F)C3CC3)C2)c2cc(Cl)ccc12 | 13.3 |  |  |  |  |  |  | 3.33 | 
5 | COc1cnc(O[C@@H]2C[C@@H](C(=O)N[C@]3(C(=O)NS(=O)(=O)C4CC4)C[C@H]3C3CC3)N(C(=O)[C@@H](NC(=O)O[C@H](C)C(F)(F)F)C(C)(C)C)C2)c2cccc(Cl)c12 | 1.8 | 8.6 | -19 | 40.4 to 40.7 | 10.9 | 49.3 | 122 | 3.33 | Activity [9]: 53%
6 | COc1cnc(O[C@@H]2C[C@@H](C(=O)N[C@]3(C(=O)NS(=O)(=O)C4CC4)C[C@H]3C3CC3)N(C(=O)[C@@H](NC(=O)OC(C)(C)C)C(C)(C)C)C2)c2cc(Cl)ccc12 | 18.3 | 19.6 | -3.5 | 5 to 5.2 | 10 | 35.7 | 44.2 | 1.38 | Activity [1]: 20%; Activity [9]: 18.5%; Activity [19]: -7.5%
7 | CC[C@@H]1C[C@]1(NC(=O)[C@@H]1C[C@@H](Oc2ncc(OC)c3ccc(Cl)cc23)CN1C(=O)[C@@H](NC(=O)OC(C)(C)C)C(C)(C)C)C(=O)NS(=O)(=O)C1CC1 | 16 | 6.9 | -12 | 18 | 12 | 40 | 43 | 0.567 | Activity [1]: 148%; Activity [9]: 26%; Activity [19]: -35%
8 | C=C[C@@H]1C[C@]1(NC(=O)[C@@H]1C[C@@H](Oc2nccc3cc(OC)ccc23)CN1C(=O)[C@@H](NC(=O)OC(C)(C)C)C(C)(C)C)C(=O)NS(=O)(=O)C1CC1 |  | 14.1 | -25 |  |  | 0.74 |  | 0.55 | Activity [9]: 290%
9 | COc1cnc(O[C@@H]2C[C@@H](C(=O)N[C@]3(C(=O)NS(=O)(=O)C4CC4)C[C@H]3C3CC3)N(C(=O)[C@@H](NC(=O)O[C@H](C)C(F)(F)F)C(C)(C)C)C2)c2ccc(Cl)cc12 | 3.4 | 7.9 |  | 30.2 | 10 | 30.7 | 81 | 2.37 | 
10 | COc1ccc2c(O[C@@H]3C[C@@H](C(=O)N[C@]4(C(=O)NS(=O)(=O)C5CC5)C[C@H]4C4CC4)N(C(=O)[C@@H](NC(=O)O[C@H](C)C(F)(F)F)C(C)(C)C)C3)nc(OC)cc2c1 | 2.4 | 0.79 to 0.794 | -58 | 14 | 3 | 19.2 | 3.5 | 1.77 | 
11 | COc1cnc(O[C@@H]2C[C@@H](C(=O)N[C@]3(C(=O)NS(=O)(=O)C4CC4)C[C@H]3C3CC3)N(C(=O)[C@@H](NC(=O)O[C@H](C)C(F)(F)F)C(C)(C)C)C2)c2cc(Cl)cc(Cl)c12 | 3 | 6.3 |  | 40.4 | 5.5 | 24 | 42.4 | 2 | 
12 | COc1cnc(O[C@@H]2C[C@@H](C(=O)N[C@]3(C(=O)NS(=O)(=O)C4CC4)C[C@H]3C(C)C)N(C(=O)[C@@H](NC(=O)OC(C)(C)C)C(C)(C)C)C2)c2cc(Cl)ccc12 | > 100 |  |  |  |  |  |  | 1.38 | 
13 | C=C(C)[C@@H]1C[C@]1(NC(=O)[C@@H]1C[C@@H](Oc2ncc(OC)c3ccc(Cl)cc23)CN1C(=O)[C@@H](NC(=O)OC(C)(C)C)C(C)(C)C)C(=O)NS(=O)(=O)C1CC1 | 12.5 |  |  |  |  |  |  | 0.0833 | 
14 | COc1cnc(O[C@@H]2C[C@@H](C(=O)N[C@]3(C(=O)NS(=O)(=O)C4CC4)C[C@H]3C3CC3)N(C(=O)[C@@H](NC(=O)OC(C)(C)C(F)(F)F)C(C)(C)C)C2)c2cc(Cl)ccc12 | 1.9 | 19.1 | -14.3 | 4.7 | 14 | 55.3 | 35.5 | 2.13 | Activity [9]: 50.4%
15 | CCC(CC)[C@H](NC(=O)O[C@H](C)C(F)(F)F)C(=O)N1C[C@H](Oc2ncc(OC)c3ccc(Cl)cc23)C[C@H]1C(=O)N[C@]1(C(=O)NS(=O)(=O)C2CC2)C[C@H]1C1CC1 | 7.2 |  |  |  |  |  |  | 2 | 
16 | COc1cnc(O[C@@H]2C[C@@H](C(=O)N[C@]3(C(=O)NS(=O)(=O)C4CC4)C[C@H]3C3CC3)N(C(=O)[C@@H](NC(=O)O[C@@H](C)C(F)(F)F)C(C)(C)C)C2)c2cc(Cl)ccc12 | 146 |  |  |  |  |  |  | > 3.33 | 
17 | COc1cnc(O[C@@H]2C[C@@H](C(=O)N[C@]3(C(=O)NS(=O)(=O)C4CC4)C[C@H]3C3CC3)N(C(=O)[C@@H](NC(=O)OC(C)(C)C(F)F)C(C)(C)C)C2)c2cc(Cl)ccc12 | 58.2 |  |  |  |  |  |  | 2 | 
18 | COc1cnc(O[C@@H]2C[C@@H](C(=O)N[C@]3(C(=O)NS(=O)(=O)C4CC4)C[C@H]3C3CC3)N(C(=O)[C@@H](NC(=O)O[C@H](C)C(F)(F)F)C3CCC3)C2)c2cc(Cl)ccc12 | 8.6 |  |  |  |  |  |  | 1.85 | 
19 | COc1cnc(O[C@@H]2C[C@@H](C(=O)N[C@]3(C(=O)NS(=O)(=O)C4CC4)C[C@H]3C3CC3)N(C(=O)[C@@H](NC(=O)OC(C)C)C(C)(C)C)C2)c2cc(Cl)ccc12 | 66.7 |  |  |  |  |  |  | 0.583 | 
20 | COc1cnc(O[C@@H]2C[C@@H](C(=O)N[C@]3(C(=O)NS(=O)(=O)C4CC4)C[C@H]3C3CC3)N(C(=O)[C@@H](NC(=O)OC3(C)CCCC3)C(C)(C)C)C2)c2cc(Cl)ccc12 | 3.7 |  |  |  |  |  |  | 0.4 | 
21 | COc1cnc(O[C@@H]2C[C@@H](C(=O)N[C@]3(C(=O)NS(=O)(=O)C4CC4)C[C@H]3C3CC3)N(C(=O)[C@@H](NC(=O)OCC(F)(F)F)C(C)(C)C)C2)c2cc(Cl)ccc12 | 48.6 |  |  |  |  |  |  |  | 
22 | COc1cnc(O[C@@H]2C[C@@H](C(=O)N[C@]3(C(=O)NS(=O)(=O)C4CC4)C[C@H]3C3CC3)N(C(=O)[C@@H](NC(=O)OC3CCCC3)C(C)(C)C)C2)c2cc(Cl)ccc12 | 19.8 |  |  |  |  |  |  | 0.65 | 
23 | COc1cnc(O[C@@H]2C[C@@H](C(=O)N[C@]3(C(=O)NS(=O)(=O)C4CC4)C[C@H]3C3CC3)N(C(=O)[C@@H](NC(=O)O[C@H](C)C(F)(F)F)C(C)C)C2)c2cc(Cl)ccc12 | 8 |  |  |  |  |  |  | 2.58 | 
